The results in this text go back to paper PMC11477965, “Synthesis and Anti-Liver Fibrosis Research of Aspartic Acid Derivatives” (Molecules, 2024).

The subject of one data set is COL1A1 promoter. Kind of data set: COL1A1 promoter luciferase reporter inhibition assay in LX-2 cells.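 On all read-outs here: Anti-fibrotic screen: luciferase reporter driven by the COL1A1 promoter in human hepatic stellate LX-2 cells, compounds applied in complete medium in 96-well plates.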 Format: cell-based, human. The following applies: for inhibition at 500 µM: read-out: Inhibitory Rate (%) of COL1A1 promotor; for relative fluorescence unit (RFU) of COL1A1 promotor: mean ± SD, n = 3, Control 124874.7 ± 10750.9.
In data set [1] the test system is IKKβ-NF-κB signaling pathway. Kind of data set: LPS-induced inflammation in LX-2 cells (western blot). Format: cell-based, human. The following applies: 24 h; for inhibition of inflammatory factors / IL-6 expression: LPS 1 μg/mL; for inhibition of inflammatory factors: 500 μM bands scanned; for LPS-induced phosphorylation and baseline expression of IKKβ, NF-κB phosphorylation and expression: LPS 1 μg/mL, 50, 100, 200, and 500 μmol/L. On the procedure:
Inflammation is crucial in the onset and progression of liver fibrosis, and fibrosis can further exacerbate tissue inflammation. […] To assess the anti-inflammatory effects of Compounds 41 and 8a, LX-2 cells were pre-incubated in serum-free medium for 24 h before LPS stimulation, followed by treatment with different concentrations of the compounds in serum-free medium containing 1 μg/mL LPS for another 24 h. Changes in inflammatory cytokine protein levels were analyzed using western blotting.
The IKKβ-NF-κB signaling pathway has been closely linked to the severity of liver fibrosis, with IKKβ serving as the primary catalytic subunit responsible for NF-κB activation. Therefore, this study investigated the NF-κB pathway by measuring IKKβ kinase activity. […] To evaluate the effects of the target compounds on LPS-induced inflammatory cytokines, four concentrations (50, 100, 200 and 500 μmol/L) were tested, and the results were analyzed by grayscale scanning of western blot bands using ImageJ software (version 1.53t), with normalization to GAPDH protein levels.
(§1) After the confluence of LX-2 cells reached 90%, the cells were treated with serum-free medium for 24 h. 2 ng/mL TGFβ1 or 1 μg/mL LPS were used in combination with compounds of different concentrations for 24 h. The samples of cells were lysed in RIPA buffer supplemented with protease inhibitor cocktail (Roche) and separated by SDS-PAGE. After the proteins were transferred to the PVDF membrane, 5% skim milk in TBS-T buffer was used to block them at room temperature for 2 h. Specific primary and secondary antibodies were used to detect the target protein. Finally, the blot was visualized using the Tanon 5200 system (Tanon, Shanghai, China) and the protein expression of GAPDH was used as the internal reference.

Data set [2] has as its system LX-2 cells. The data set is described as follows: SRB cytotoxicity assay in LX-2 cells. Format: cell-based, human. The following applies: CC50 in LX-2 cells / IC50 on COL1A1 promoter. On the procedure:
(§2) Their cytotoxicity in LX-2 cells was assessed across various concentrations using the SRB assay, and the cytotoxic concentrations (CC50) were determined. The selectivity index (SI), calculated as the ratio of CC50 to the […] (IC50), was employed to evaluate the compounds’ effects on the COL1A1 promoter (Table 2).
(§3) The LX-2 cells were seeded in a 96-well plate when reaching 90% confluent. After 24 h, the compound to be tested was prepared using a complete medium and added to the 96-well plate for 24 h. After washing with PBS, the cells were fixed with 10% (wt/vol) trichloroacetic acid for 1 h, washed with deionized water and dried completely and, after staining with SRB for 20 min, the excess dye was washed with 1% acetic acid (vol/vol) three times. The dye bound to the protein was dissolved with 10 mM Tris base solution and OD values were determined at […].

The nature of data set [3]: SRB cytotoxicity assay in LX-2 cells. Format: cell-based, human. The following applies: human, LX-2 cells, SRB assay. As to the method: as §2, §3
Data set [4] deals with fibro-genic gene expression (fibronectin, COL1A1, TGFβ, α-SMA, CTGF, and TIMP1). The data set is described as follows: Western blot of fibro-genic proteins in TGFβ1-activated LX-2 cells. To be noted: TGFβ1 2 ng/mL, 24 h; for expression of fibro-genic genes (western blot): compound 100 μmol/L. Format: cell-based, human. As to the method: (§4) To evaluate the anti-fibrotic efficacy in vitro, we assessed the downregulatory effects of ten active compounds (3, 4c, 4d, 8a, 9, 28a, 32a, 41, 43 and 45) and L-Asp on fibro-genic gene expression (fibronectin, COL1A1, TGFβ, α-SMA, CTGF, and TIMP1) using western blot analysis. LX-2 cells were activated with TGFβ1 (2 ng/mL) and concurrently treated with each compound (100 μmol/L) for 24 h.
as §1

The test system of data set [5] is LX-2 cells. The data set is described as follows: LPS-induced activation of LX-2 cells, fibro-genic proteins (western blot). Format: cell-based, human. To be noted: LPS 1 μg/mL, 50, 100, 200, and 500 μmol/L, 24 h. On the procedure: Taking the results of Figure 3 and Figure 4 together, it seems that compounds 41 and 8a alleviate inflammation and inhibit liver fibrosis through the IKKβ-NF-κB signaling pathway, as indicated in Figure 5.
as §1

Data set [6] has as its system mRNA expression of COL1A1, TGFβ1, and MMP2. The data set is described as follows: RT-qPCR of fibro-genic mRNA in TGFβ1-activated LX-2 cells. Format: cell-based, human. The following applies: TGFβ1 2 ng/mL, 24 h. On the procedure: as §4
The LX-2 cells were seeded in a 6-well plate and cultured in a complete medium at 37 °C in a 5% CO2 environment until reaching 90% confluence. After culture without serum medium for 24 h, the cells were treated with 2 ng/mL TGFβ1 or 1 μg/mL LPS and the right concentration of compounds for 24 h. Total RNA was extracted using TRIzol reagent and purified by NucleoSpin RNA Clean-up Kit (Macherey-Nagel, Munich, Germany). Total RNA was reverse-transcribed into […] using a Transcriptor First Strand cDNA Synthesis Kit (Roche, Basel, Switzerland). The relative expression levels of the target gene were determined using a TaqMan probe with an ABI Q3 quantitative real-time PCR system, while GAPDH was utilized as an internal control for mRNA expression. The fold change of target mRNA expression was calculated using Equation 2^−∆∆Ct.

[7] abbreviates: Homo sapiens, LX-2 cells, 0.5 mM, 24 h.
Where [8] appears, read: Homo sapiens, LX-2, LX-2 cells, read-out: IC50 to inhibit the activity of COL1A1 promoter by 50%.
[9] abbreviates: 24 h, read-out: CC50, cytotoxic concentration required to inhibit the growth of LX-2 cells by 50%.

SMILES strings stand for the structures. “Also recorded” adds a separate entry of the source. Where two headings read alike, the source gives them in different places. Where a SMILES comes first, the peptide text is derived from it.

Procedure for COL1A1 promoter: A total of 32 target compounds, the lead compound L-Asp, and the positive control epigallocatechin gallate (EGCG), known for its anti-hepatic fibrotic activity [29], were tested for inhibitory effects on COL1A1 promoter activity at a concentration of 0.5 mM.
The LX-2 cells at 90% confluent were transfected with the plasmid of pGL4.17-COL1A1 promoter using Lipofectamine 2000 (Invitrogen, 11668019, Carlsbad, CA, USA) with Opti-MEM serum-free medium (Gibco, 1930104). After culturing for 6 h, the cells were replaced with a complete medium and seeded in 96-well plates for 24 h. The compound to be tested was prepared using a complete medium and added to the 96-well plate. After 24 h, Bright-Glo Luciferase Assay System (Promega, Madison, WI, USA) was used to detect the activity of COL1A1 promoter and the assaying inhibition rate.

With `N[C@@H](CC(=O)O)C(=O)O` [L-Asp, L-aspartic acid, reference compound], the inhibition at 500 µM in the data set with COL1A1 promoter (setting [7]) is 11.3 ± 0.35%. The “relative fluorescence unit (RFU) of COL1A1 promotor” value (shortened to “relative fluorescence unit (RFU)”) in the data set with COL1A1 promoter (LX-2 cells) was 110724.3 ± 444.6 RFU. Besides, the “inhibition of inflammatory factors” value in data set [1] is “moderate inhibition”.

For the compound `CC[C@@H]1C2C[C@H](O)CC[C@]2(C)C2CC[C@@]3(C)C(CCC3[C@H](C)CCC(=O)N[C@@H](CC(=O)O)C(=O)O)C2[C@@H]1O` (stereo partly drawn) [Compound 9, ((4R)-4-((3R,6R,7R,10S,13R)-6-ethyl-3,7-dihydroxy-10,13-dimethylhexadecahydro-1H-cyclopenta[a]phenanthren-17-yl)pentanoyl)-L-aspartic acid], the melting point is 108.2 to 110.6 °C. For the same compound, the IC50 in the data set on COL1A1 promoter (setting [8]) was determined as 270 ± 47.9 µM. Further, in the data set on COL1A1 promoter (setting [7]), the inhibition at 500 µM was 97.4 ± 3.53%. In addition, the “relative fluorescence unit (RFU)” value with COL1A1 promoter (LX-2 cells) is given as 3188.3 ±4407.2 RFU. Further, the “SI, selectivity index (CC50/IC50)” value in the data set on LX-2 cells [2] came to 1.30. In addition, the CC50 at 24 h in data set [3] (setting [9]) amounted to 351 ± 19.4 µM.

For `C[C@H](N)C(=O)N[C@@H](CC(=O)O)C(=O)O` [Compound 8a, L-alanyl-L-aspartic acid] (H-Ala-Asp-OH), the inhibition at 500 µM in the data set on COL1A1 promoter (Homo sapiens, LX-2, 24 h) was 49.3 ± 13.3%. The IC50 in the data set with COL1A1 promoter (Homo sapiens, LX-2, read-out: IC50 to inhibit the activity of COL1A1 promoter by 50%) was 1050 ± 111 µM. Also, the “relative fluorescence unit (RFU)” value in the data set with COL1A1 promoter (LX-2 cells) is on record as 63265.3 ± 16582.4 RFU. Moreover, the “expression of fibro-genic genes (western blot)” value in data set [4] was “no significant inhibitory effect”. The “SI, selectivity index (CC50/IC50)” value in the data set with LX-2 cells [2] amounted to 13.16. In data set [3] (setting [9]), the CC50 at 24 h is 13900 µM. For the same compound, the CC50 at 24 h in data set [3] (read-out: CC50 in LX-2 cells) is 13000 µM. Further, the “protein expression of COL1A1, fibronectin, α-SMA, and CTGF” value in the data set on LX-2 cells [5] was “significantly reducing”. Moreover, in data set [1], the “LPS-induced phosphorylation and baseline expression of IKKβ, NF-κB phosphorylation and expression” value was “dose-dependent reduction”; the IL-6 expression result is “significantly suppressed”; the “inhibition of inflammatory factors” value is listed as “superior inhibitory effects”.

In the case of `COC(=O)[C@H]1C[C@H](Oc2cc(Cl)nn3c(-c4ccc(OC)c(OC)c4)cnc23)CN1C(=O)OC(C)(C)C` [Compound 41, 1-(tert-butyl)-2-methyl-(2R,4S)-4-((6-chloro-3-(3,4-dimethoxyphenyl)imidazo [1,2-b]pyridazin-8-yl)oxy)pyrrolidine-1,2-dicarboxylate], the IC50 with COL1A1 promoter (setting [8]) was found to be 30 µM. In addition, the inhibition at 500 µM with COL1A1 promoter (setting [7]) was 66.7 ± 1.96%. In addition, in the data set with COL1A1 promoter (LX-2 cells), the “relative fluorescence unit (RFU)” value worked out at 41555.6 ± 2445.9 RFU. Further, the IC50 in the data set on COL1A1 promoter (LX-2 cells, read-out: IC50 to inhibit the activity of COL1A1 promoter by 50%) is 30.6 ± 0.3 µM. Further, the “mRNA expression of COL1A1, TGFβ1, and MMP2” value in data set [6] is given as “markedly decreased”. The “expression of fibro-genic genes (western blot)” value in data set [4] is reported as “significantly suppressed”. The “protein levels of fibronectin, COL1A1, and α-SMA following TGFβ1 stimulation” value in data set [4] (different concentrations) is “notably inhibited; also recorded: reduced the protein levels of fibronectin, COL1A1, and α-SMA in a dose-dependent manner”. For the same compound, in the data set on LX-2 cells [2], the “SI, selectivity index (CC50/IC50)” value was 16.68. In addition, in data set [3] (setting [9]), the CC50 at 24 h amounted to 510 ± 51.5 µM. Besides, the “protein expression of COL1A1, fibronectin, α-SMA, and CTGF” value in the data set on LX-2 cells [5] is “significantly reducing; also recorded: potent inhibition”. In addition, in data set [1], the “LPS-induced phosphorylation and baseline expression of IKKβ, NF-κB phosphorylation and expression” value is “dose-dependent reduction”; the IL-6 expression entry is on record as “significantly suppressed”; the “inhibition of inflammatory factors” value is “superior inhibitory effects”.

Turning to `COc1ccc(-c2cnc3c(O[C@@H]4CN[C@@H](C(=O)O)C4)cc(C)nn23)cc1OC` [Compound 45, (2R,4S)-4-((3-(3,4-dimethoxyphenyl)-6-methylimidazo [1,2-b]pyridazin-8-yl)oxy)pyrrolidine-2-carboxylic acid], in the data set on COL1A1 promoter (setting [8]), the IC50 was determined as 298 ± 51.7 µM. Moreover, in the data set with COL1A1 promoter (setting [7]), the inhibition at 500 µM amounted to 69.6 ± 8.48%. Further, in the data set on COL1A1 promoter (LX-2 cells), the “relative fluorescence unit (RFU)” value was 37918.9 ± 10579.6 RFU. Further, the “SI, selectivity index (CC50/IC50)” value in the data set on LX-2 cells [2] was 2.12. Further, the CC50 at 24 h in data set [3] (setting [9]) worked out at 632 ± 11.2 µM.

For `CC(C)(C)OC(=O)C[C@H](NC(=O)OCC1c2ccccc2-c2ccccc21)C(=O)NCCO` [Compound 3, Tert-butyl (S)-3-((((9H-fluoren-9-yl)methoxy)carbonyl)amino)-4-((2-hydroxyethyl)amino)-4-oxobutanoate], the melting point was in the range of 93.2 to 95.6 °C. For the same compound, in the data set on COL1A1 promoter (setting [8]), the IC50 worked out at 327 ± 17.1 µM. In the data set on COL1A1 promoter (setting [7]), the inhibition at 500 µM was 81.5 ± 5.62%. Also, the “relative fluorescence unit (RFU)” value in the data set with COL1A1 promoter (LX-2 cells) is 23056.9 ± 7017.3 RFU. For the same compound, the “SI, selectivity index (CC50/IC50)” value in the data set with LX-2 cells [2] is recorded as 2.01. In addition, the CC50 at 24 h in data set [3] (setting [9]) was determined as 660 ± 24.6 µM.
